Results as given in patent US5604262A, “Topical antimicrobial agents” (Research Corporation Technologies, Inc., priority 1995, dated 1997).
In brackets after ≈: the same amount, converted by molar mass.

Legend:
[1] = system: fungi; conditions: Moleyar et al. 1986; cited from earlier work
[2] = system: Propionibacterium acnes ATCC 11827; assay: MIC by two-fold serial broth dilution; format: cell-based; conditions: P. acnes; for MIC: Cutibacterium acnes, ATCC11827, 48 h, NYG broth, two days, turbidity OD 660 nm
Text: (§1) The microorganisms tested were from the American Type Culture Collection (Rockville, Md.). They are Bacillus subtilis ATCC 9372, Brevibacterium ammoniagenes ATCC 6872, Staphylococcus aureus ATCC 12598, Streptococus mutans ATCC 25175, Propionibacterium acnes ATCC 11827, Pseudimonas aeruginosa ATCC 10145, Enterobacter aerogenes ATCC 13048, Eschericia coli ATCC 9637, Proteus vulgaris ATCC […], Saccharomyces cerevisiae ATCC 7754, Candida utilis ATCC 9226, Pityrosporum ovale ATCC 14521, Penicillium chrysogenum ATCC 10106 and Trichophyton mentagrophytes ATCC 18748.
(§2) The bacterial culture media except for S. mutans was 0.8% nutrient broth (BBL), 0.5% yeast Extract (Difco) and 0.1% glucose (NYG broth). S. mutans was cultured in 3.7% brain heart infixsion broth (Difco). All fungi, except P. ovale and T. mentagrophytes were cultured in a 2.5% malt extract broth (BBL). P. ovale was cultured in 1% bactopeptone (Difco), 0.5% yeast extract, 1% glucose and 0.1% corn oil. For T. mentagrophytes the culture media was 1% bactopeptone and 4% glucose.
(§3) Freeze dried samples were prepared for testing as follows. B. subtilis, S. cerevisiae, C. utilis, and P. ovale, were shake-cultured for two days at 30° C. P. chrysogenum and T. mentagrophytes were shake-cultured for 5 days at 30° C. B. ammoniagenes and E. aerogenes were stationarily cultured at 30° C. S. aureus, S. mutans, P. acnes, P. aeruginosa, E. coli and P. vulgaris were stationarily cultured at 37° C.
(§4) The minimum inhibitory concentration (MIC) of the 3-alken-2-ones (compounds 1-4, 6-8) and 3,13-tetradecadien-2-one (compound 5) was performed using a two-fold serial broth dilution. Each test compound was dissolved in DMF and 30 μL of this sample was dissolved in 3 mL of the applicable medium. A 30 μL sample of the previously described culture of each microorganism was added to the various medium solutions. After two days, the cultures of B. subtilis, S. cerevisiae, C. utilis B. ammoniagenes, E. aerogenes, S. aureus, S. mutans, P. acnes, P. aeruginosa, E. coli and P. vulgaris were examined for turbidity (OD at 660 nm). The fungi, P. ovale, P. chrysogenum and T. mentagrophytes, were examined visually for growth at 3 days (P. ovale) and 5 days (P. chrysogenum and T. mentagrophytes). The MIC was determined as the lowest concentration for each compound that no growth was observed. The highest concentration used in these tests was 800 μg/mL.

[3] = system: Penicillium chrysogenum ATCC 10106; assay: MIC by two-fold serial broth dilution; format: cell-based; conditions: P. chrysogenum; for MIC: Penicillium chrysogenum, ATCC10106, 120 h, malt extract broth, 5 days, visual
Text: as §1, §2, §3, §4

[4] = system: Proteus vulgaris ATCC 133315; assay: MIC by two-fold serial broth dilution; format: cell-based; conditions: ATCC133315, 48 h, P. vulgaris, NYG broth, two days, turbidity OD 660 nm
Text: as §1, §2, §3, §4

[5] = system: Streptococus mutans ATCC 25175; assay: MIC by two-fold serial broth dilution; format: cell-based; conditions: S. mutans; for MIC: Streptococcus mutans, ATCC25175, 48 h, brain heart infusion broth, two days, turbidity OD 660 nm
Text: as §1, §2, §3, §4

[6] = system: Bacillus subtilis ATCC 9372; assay: MIC by two-fold serial broth dilution; format: cell-based; conditions: B. subtilis; for MIC: Bacillus subtilis, ATCC9372, 48 h, NYG broth, two days, turbidity OD 660 nm
Text: as §1, §2, §3, §4

[7] = system: Pityrosporum ovale ATCC 14521; assay: MIC by two-fold serial broth dilution; format: cell-based; conditions: P. ovale; for MIC: 72 h, bactopeptone/yeast extract/glucose/corn oil, 3 days, visual
Text: as §1, §2, §3, §4

[8] = system: Brevibacterium ammoniagenes ATCC 6872; assay: MIC by two-fold serial broth dilution; format: cell-based; conditions: B. ammoniagenes; for MIC: Corynebacterium ammoniagenes, ATCC6872, 48 h, NYG broth, two days, turbidity OD 660 nm
Text: as §1, §2, §3, §4

[9] = system: Trichophyton mentagrophytes ATCC 18748; assay: MIC by two-fold serial broth dilution; format: cell-based; conditions: ATCC18748, 120 h, T. mentagrophytes, bactopeptone/glucose, 5 days, visual
Text: as §1, §2, §3, §4

[10] = system: Enterobacter aerogenes ATCC 13048; assay: MIC by two-fold serial broth dilution; format: cell-based; conditions: E. aerogenes; for MIC: Klebsiella aerogenes, ATCC13048, 48 h, NYG broth, two days, turbidity OD 660 nm
Text: as §1, §2, §3, §4

[11] = system: Staphylococcus aureus ATCC 12598; assay: MIC by two-fold serial broth dilution; format: cell-based; conditions: S. aureus; for MIC: Staphylococcus aureus, ATCC12598, 48 h, NYG broth, two days, turbidity OD 660 nm
Text: as §1, §2, §3, §4

[12] = system: Eschericia coli ATCC 9637; assay: MIC by two-fold serial broth dilution; format: cell-based; conditions: E. coli; for MIC: Escherichia coli, ATCC9637, 48 h, NYG broth, two days, turbidity OD 660 nm
Text: as §1, §2, §3, §4

[13] = system: Saccharomyces cerevisiae ATCC 7754; assay: MIC by two-fold serial broth dilution; format: cell-based; conditions: S. cerevisiae; for MIC: Saccharomyces cerevisiae, ATCC7754, 48 h, malt extract broth, two days, turbidity OD 660 nm
Text: as §1, §2, §3, §4

[14] = system: Pseudimonas aeruginosa ATCC 10145; assay: MIC by two-fold serial broth dilution; format: cell-based; conditions: P. aeruginosa; for MIC: Pseudomonas aeruginosa, ATCC10145, 48 h, NYG broth, two days, turbidity OD 660 nm
Text: as §1, §2, §3, §4

[15] = system: Candia utilis ATCC 9226; assay: MIC by two-fold serial broth dilution; format: cell-based, Candida utilis; conditions: C. utilis; for MIC: Williopsis jadinii, ATCC9226, 48 h, malt extract broth, two days, turbidity OD 660 nm
Text: as §1, §2, §3, §4

[16] = system: bacteria and fungi in the test, except S. mutans and P. acnes; assay: MIC test, all bacteria and fungi except S. mutans and P. acnes; format: cell-based; conditions: all of the bacteria and fungi in the test
Text: as §1, §2
Freeze dried samples were prepared for testing as follows. […]
The minimum inhibitory concentration (MIC) of the 3-alken-2-ones (compounds 1-4, 6-8) and 3,13-tetradecadien-2-one (compound 5) was performed using a two-fold serial broth dilution. […] The MIC was determined as the lowest concentration for each compound that no growth was observed. […]

[17] = system: Pr. acnes; conditions: Kubo et al. 1994; cited from earlier work
[18] = system: S. mutans; conditions: Kubo et al. 1993; cited from earlier work
[19] = background statement; cited from earlier work

Compound | MIC [2] [µg/mL] | MIC [3] [µg/mL] | MIC [4] [µg/mL] | MIC [5] [µg/mL] | MIC [6] [µg/mL] | MIC [7] [µg/mL] | MIC [8] [µg/mL] | MIC [9] [µg/mL] | MIC [10] [µg/mL] | MIC [11] [µg/mL] | MIC [12] [µg/mL] | MIC [13] [µg/mL] | MIC [14] [µg/mL] | MIC [15] [µg/mL] | further results
C=C(C)C1CC=C(C)C(=O)C1 (centres unmarked) [Carvone] | – | – | – | – | – | – | – | – | – | – | – | – | – | – | antifungal activity (in words) [1]: antifungal activity
CCCCCCC/C=C/C(C)=O [Compound 1, (E)-3-Undecen-2-one] | 50 (≈ 297 µM) | 100 (≈ 594 µM) | 50 (≈ 297 µM) | 100 (≈ 594 µM) | 100 (≈ 594 µM) | 100 (≈ 594 µM) | 200 (≈ 1190 µM) | 100 (≈ 594 µM) | > 800 | 200 (≈ 1190 µM) | > 800 | 800 (≈ 4750 µM) | > 800 | 50 (≈ 297 µM) | –
CCCCCCCC/C=C/C(C)=O [Compound 2, (E)-3-Dodecen-2-one] | 25 (≈ 137 µM) | 100 (≈ 549 µM) | 50 (≈ 274 µM) | 50 (≈ 274 µM) | 100 (≈ 549 µM) | 100 (≈ 549 µM) | 100 (≈ 549 µM) | 100 (≈ 549 µM) | > 800 | 100 (≈ 549 µM) | > 800 | 800 (≈ 4390 µM) | > 800 | 400 (≈ 2190 µM) | –
CCCCCCCCC/C=C/C(C)=O [Compound 3, (E)-3-Tridecen-2-one] | 12.5 (≈ 63.7 µM) | 800 (≈ 4070 µM) | 800 (≈ 4070 µM) | 25 (≈ 127 µM) | 100 (≈ 509 µM) | 100 (≈ 509 µM) | 100 (≈ 509 µM) | 25 (≈ 127 µM) | > 800 | 50 (≈ 255 µM) | > 800 | > 800 | > 800 | > 800 | activity (in words) [2]: showed activity; activity (in words) [3]: Weak activity; activity (in words) [5]: showed activity; activity (in words) [6]: showed activity; activity (in words) [7]: moderate inhibition; activity (in words) [8]: showed activity; activity (in words) [10]: not active; activity (in words) [11]: showed activity; activity (in words) [12]: not active; activity (in words) [13]: no activity; activity (in words) [14]: not active; activity (in words) [15]: no activity
CCCCCCCCCC/C=C/C(C)=O [Compound 4, (E)-3-Tetradecen-2-one] | 12.5 (≈ 59.4 µM) | 800 (≈ 3800 µM) | > 800 | 25 (≈ 119 µM) | > 800 | 100 (≈ 475 µM) | > 800 | 12.5 (≈ 59.4 µM) | > 800 | > 800 | > 800 | > 800 | > 800 | > 800 | activity (in words) [2]: showed activity; activity (in words) [3]: Weak activity; activity (in words) [5]: showed activity; activity (in words) [7]: moderate inhibition; activity (in words) [10]: not active; activity (in words) [12]: not active; activity (in words) [13]: no activity; activity (in words) [14]: not active; activity (in words) [15]: no activity
C=CCCCCCCCC/C=C/C(C)=O [Compound 5, (E)-3,13-Tetradecadien-2-one] | 12.5 (≈ 60 µM) | 800 (≈ 3840 µM) | > 800 | 25 (≈ 120 µM) | > 800 | 200 (≈ 960 µM) | > 800 | 12.5 (≈ 60 µM) | > 800 | > 800 | > 800 | > 800 | > 800 | > 800 | –
CCCCCCCCCCC/C=C/C(C)=O [Compound 6, (E)-3-Pentadecen-2-one] | 6.25 (≈ 27.9 µM) | > 800 | > 800 | 200 (≈ 891 µM) | > 800 | 400 (≈ 1780 µM) | > 800 | 800 (≈ 3570 µM) | > 800 | > 800 | > 800 | > 800 | > 800 | > 800 | –
CCCCCCCCCCCC/C=C/C(C)=O [Compound 7, (E)-3-Hexadecen-2-one] | 3.13 (≈ 13.1 µM) | > 800 | > 800 | 400 (≈ 1680 µM) | > 800 | > 800 | > 800 | > 800 | > 800 | > 800 | > 800 | > 800 | > 800 | > 800 | activity (in words) [2]: strong activity; activity (in words) [5]: weakly active; activity (in words) [16]: inactive
CCCCCCCCCCCCC/C=C/C(C)=O [Compound 8, (E)-3-Heptadecen-2-one] | 3.13 (≈ 12.4 µM) | > 800 | > 800 | 800 (≈ 3170 µM) | > 800 | > 800 | > 800 | > 800 | > 800 | > 800 | > 800 | > 800 | > 800 | > 800 | activity (in words) [2]: strong activity; activity (in words) [16]: inactive
CC(C)=CCCC(C)=CCCC(C)=CCO [farnesol] | – | – | – | – | – | – | – | – | – | – | – | – | – | – | activity against Pr. acnes (in words) [17]: exhibited activity
CC(C)=CCCC(C)=CCCC(C)=CCCC(C)O (centres unmarked) [farnesyl acetol] | – | – | – | – | – | – | – | – | – | – | – | – | – | – | activity against Pr. acnes (in words) [17]: exhibited activity
CC(=O)CCC=C(C)CCC=C(C)CCC=C(C)C [farnesylacetone] | – | – | – | – | – | – | – | – | – | – | – | – | – | – | activity against Pr. acnes (in words) [17]: inactive
CC(C)=CCCC(C)=CCCC(C)O (centres unmarked) [geranylacetol] | – | – | – | – | – | – | – | – | – | – | – | – | – | – | activity against Pr. acnes (in words) [17]: exhibited activity
CC(=O)/C=C/C1C(C)=CCCC1(C)C (stereo not drawn) [α-ionone] | – | – | – | – | – | – | – | – | – | – | – | – | – | – | antibacterial activity (in words) [18]: moderate antibacterial activity
CC(=O)/C=C/C1=C(C)CCCC1(C)C [β-ionone] | – | – | – | – | – | – | – | – | – | – | – | – | – | – | antibacterial activity (in words) [18]: moderate antibacterial activity
ionone | – | – | – | – | – | – | – | – | – | – | – | – | – | – | allergic skin reactions [19]: can cause allergic skin reactions
